Data: patent US5210239A, “Ouinone derivatives and pharmacological use” (Eisai Co., Ltd., priority 1989, dated 1993)
Like-named read-outs stand apart in the source and are kept apart here.

Columns and labels:
[1] = system: rat D-galactosamine (GalN)-induced acute hepatitis model; assay: rat D-galactosamine (GalN)-induced acute hepatitis model; assay type: in vivo, Fischer (F 344) male rat; details: 300 mg/kg GalN s.c., compound 100 mg/kg oral 1 hr after GalN, blood 48 hr after GalN
Procedure: 300 mg/kg of GalN was subcutaneously injected into a Fischer (F 344) male rat(s) (around 180 g) to induce acute hepatitis. Each test compound was suspended in a 0.5% aqueous methylcellulose solution and orally administered at a dose of 100 mg/kg one hr after the injection of GalN.
Blood was sampled from the tail of the rat 48 hr after the injection of GalN. The blood clotting time was measured by Hepaplastin test (HPT), and at the same time GPT activity in the plasma was measured enzymatically.

[2] = system: mouse propionibactrium acnes (P. acnes)-lipopolysaccharide (LPS)-induced fulminant hepatitis model; assay: mouse P. acnes-lipopolysaccharide (LPS)-induced fulminant hepatitis model; assay type: in vivo, male Balb/c mice; details: for responders at 100 mg/kg: Cutibacterium acnes, po, 24 h, read-out: Survival rate (%), test compd. group
Procedure: One mg/mouse of heat-killed P. acnes was intravenously injected into a five-week-old male Balb/c mice and LPS was additionally intravenously injected at a dose of 1 microgram/mouse 7 days after the injection of P.acnes to induce fulminant hepatitis. Each test compound was suspended in a 0.5% methylcellulose solution and orally administered at a dose of 100 mg/kg 30 min before the intravenous injection of LPS.
Survival rates and GPT activity in plasma of the survivors were determined in 24 hours after the intravenous injection of LPS. The mice treated with each test compound against the lethality and hepatic injury induced with P. acnes-LPS are shown in Table 2.

[3] = Toxicity test, one week oral administration; assay type: in vivo; design: dose or concentration left out as unconfirmed; details: seven-week male SD rat
[4] = read-out: Percentage inhibition (%) GPT (plasma GPT activity)
[5] = read-out: Percentage inhibition (%) HPT (blood clotting time, Hepaplastin test)
[6] = plasma GPT of survivors 24 hours after LPS, 100 mg/kg oral, value is test group

## CCCCCCCCC/C(=C\C1=C(C)C(=O)C(OC)=C(OC)C1=O)C(=O)O [Example 4, (E)-3-[5-(2,3-Dimethoxy-6-methyl-1,4-benzoquinoyl)]-2-nonyl-2-propenoic acid]
[1]; [4]
  inhibition in vivo at 100 mg/kg: 91%
[1]; [5]
  inhibition in vivo at 100 mg/kg: 87%
[2]
  responders at 100 mg/kg: 64%
[2]; [6]
  GPT (survival rate), test compd. group (%) [part 1]: 358 ± 40%
[3]
  death: no compound was found to cause death

## COc1c(O)c(C)c(/C=C(\C(=O)O)c2ccccc2)c(OC)c1OC [Example 14, (Z)-3-[5-(1-Hydroxy-6-methyl-2,3,4-trimethoxy)phenyl]-2-phenyl-2-propenoic acid]
[1]; [4]
  inhibition in vivo at 100 mg/kg: 78%
[1]; [5]
  inhibition in vivo at 100 mg/kg: 76%
[2]
  responders at 100 mg/kg: 100%
[2]; [6]
  GPT (survival rate), test compd. group (%) [part 1]: 297 ± 50%

## CCCCC/C(=C\c1c(C)c(O)c(OCC)c(OCC)c1OCC)C(=O)O [compound 20]
[1]; [4]
  inhibition in vivo at 100 mg/kg: 68%
[1]; [5]
  inhibition in vivo at 100 mg/kg: 68%
[2]
  responders at 100 mg/kg: 70%
[2]; [6]
  GPT (survival rate), test compd. group (%) [part 1]: 293 ± 65%

## CCOc1c(O)c(C)c(/C=C(\Cc2ccccc2)C(=O)O)c(OCC)c1OCC [compound 79]
[1]; [4]
  inhibition in vivo at 100 mg/kg: 94%
[1]; [5]
  inhibition in vivo at 100 mg/kg: 89%
[2]
  responders at 100 mg/kg: 50%
[2]; [6]
  GPT (survival rate), test compd. group (%) [part 1]: 1009 ± 196%

## CCCCCCCCC/C(=C\c1c(C)c(O)c(OC)c(OC)c1O)C(=O)O [compound 127]
[1]; [4]
  inhibition in vivo at 100 mg/kg: 60%
[1]; [5]
  inhibition in vivo at 100 mg/kg: 71%

## CCOC1=C(OC)C(=O)C(C)=C(/C=C(\CCC(C)C)C(=O)O)C1=O [compound 135]
[1]; [4]
  inhibition in vivo at 100 mg/kg: 52%
[1]; [5]
  inhibition in vivo at 100 mg/kg: 51%
[2]
  responders at 100 mg/kg: 50%

## COC1=C(/C=C(\CCC(C)C)C(=O)O)C(=O)C(OC)=C(OC)C1=O [compound 137]
[1]; [4]
  inhibition in vivo at 100 mg/kg: 77%
[1]; [5]
  inhibition in vivo at 100 mg/kg: 73%
[2]
  responders at 100 mg/kg: 30%
[3]
  death: no compound was found to cause death

## COC1=C(OC)C(=O)C(/C=C(\CC2CCCCC2)C(=O)O)=C(C)C1=O [compound 141]
[1]; [4]
  inhibition in vivo at 100 mg/kg: 100%
[1]; [5]
  inhibition in vivo at 100 mg/kg: 98%
[2]
  responders at 100 mg/kg: 25%

## CCOC1=C(OC)C(=O)C(C)=C(/C=C(\CC2CCCCC2)C(=O)O)C1=O [compound 142]
[1]; [4]
  inhibition in vivo at 100 mg/kg: 76%
[1]; [5]
  inhibition in vivo at 100 mg/kg: 67%
[2]
  responders at 100 mg/kg: 100%
[2]; [6]
  GPT (survival rate), test compd. group (%) [part 1]: 381 ± 19%
[3]
  death: no compound was found to cause death

## CCOC1=C(OCC)C(=O)C(/C=C(\CC2CCCCC2)C(=O)O)=C(C)C1=O [compound 144]
[1]; [4]
  inhibition in vivo at 100 mg/kg: 78%
[1]; [5]
  inhibition in vivo at 100 mg/kg: 79%
[2]
  responders at 100 mg/kg: 100%
[2]; [6]
  GPT (survival rate), test compd. group (%) [part 1]: 280 ± 31%

## COC1=C(/C=C(\CC2CCCCC2)C(=O)O)C(=O)C(OC)=C(OC)C1=O [compound 149]
[1]; [4]
  inhibition in vivo at 100 mg/kg: 93%
[1]; [5]
  inhibition in vivo at 100 mg/kg: 95%
[2]
  responders at 100 mg/kg: 67%
[2]; [6]
  GPT (survival rate), test compd. group (%) [part 1]: 209 ± 66%

## COC1=C(OC)C(=O)C(/C=C(\CCCCC#N)C(=O)O)=C(C)C1=O [compound 176]
[1]; [4]
  inhibition in vivo at 100 mg/kg: 96%
[1]; [5]
  inhibition in vivo at 100 mg/kg: 97%
[2]
  responders at 100 mg/kg: 80%
[2]; [6]
  GPT (Ku/ml), test compd. group [part 2]: 297 ± 50 Ku/ml

## COC1=C(OC)C(=O)C(/C=C(\CCCSC)C(=O)O)=C(C)C1=O [compound 183]
[1]; [4]
  inhibition in vivo at 100 mg/kg: 86%
[1]; [5]
  inhibition in vivo at 100 mg/kg: 80%
[2]
  responders at 100 mg/kg: 22%

## COC1=C(OC)C(=O)C(/C=C(\Cc2cccs2)C(=O)O)=C(C)C1=O [compound 217]
[1]; [4]
  inhibition in vivo at 100 mg/kg: 97%
[1]; [5]
  inhibition in vivo at 100 mg/kg: 99%
[2]
  responders at 100 mg/kg: 80%
